Reference: the NIST ThermoML archive (doi:10.1016/j.jct.2007.11.009)
± gives the expanded uncertainty stated by the source.

Conditions: Liquid, Vibrating tube method

CCCCCCCC [octane]
mass density [kg/m3]
Conditions	298.15 K	308.15 K	318.15 K	328.15 K
100 kPa	698.7 ± 0.3	690.8 ± 0.3	682.8 ± 0.3	674.5 ± 0.3
2130 kPa	700.4 ± 0.3	692.6 ± 0.3	684.7 ± 0.3	676.6 ± 0.3
4150 kPa	702.2 ± 0.3	694.4 ± 0.3	686.7 ± 0.3	678.7 ± 0.3
6180 kPa	703.8 ± 0.3	696.2 ± 0.3	688.6 ± 0.3	680.7 ± 0.3
8210 kPa	705.4 ± 0.3	698 ± 0.3	690.4 ± 0.3	682.6 ± 0.3
10230 kPa	707 ± 0.3	699.7 ± 0.3	692.2 ± 0.3	684.6 ± 0.3
11250 kPa	707.8 ± 0.3	700.5 ± 0.3	693.1 ± 0.4	685.5 ± 0.4
12260 kPa	708.6 ± 0.4	701.3 ± 0.4	694 ± 0.4	686.4 ± 0.4
14290 kPa	710.1 ± 0.4	703 ± 0.4	695.7 ± 0.4	688.3 ± 0.4
16310 kPa	711.7 ± 0.4	704.5 ± 0.4	697.4 ± 0.4	690.1 ± 0.4
18340 kPa	713.1 ± 0.4	706.1 ± 0.4	699.1 ± 0.4	691.8 ± 0.4
20370 kPa	714.6 ± 0.4	707.6 ± 0.4	700.7 ± 0.4	693.6 ± 0.4
22390 kPa	715.9 ± 0.4	709.1 ± 0.4	702.3 ± 0.4	695.2 ± 0.5
24420 kPa	717.4 ± 0.4	710.6 ± 0.5	703.9 ± 0.5	696.9 ± 0.5
26450 kPa	718.8 ± 0.5	712 ± 0.5	705.4 ± 0.5	698.5 ± 0.5
28470 kPa	720.1 ± 0.5	713.4 ± 0.5	706.9 ± 0.5	700 ± 0.5
29490 kPa	720.8 ± 0.5	714.1 ± 0.5	707.6 ± 0.5	700.8 ± 0.5
30500 kPa	721.4 ± 0.5	714.8 ± 0.5	708.3 ± 0.5	701.6 ± 0.5
32530 kPa	722.7 ± 0.5	716.2 ± 0.5	709.7 ± 0.5	703 ± 0.6
34550 kPa	724 ± 0.5	717.5 ± 0.6	711.2 ± 0.6	704.5 ± 0.6
36580 kPa	725.3 ± 0.6	718.8 ± 0.6	712.5 ± 0.6	706 ± 0.6
38600 kPa	726.5 ± 0.6	720.2 ± 0.6	713.9 ± 0.6	707.4 ± 0.6
39620 kPa	727.1 ± 0.6	720.8 ± 0.6	714.6 ± 0.6	708.1 ± 0.6
